Assay results reported in patent US11759480B2, “Compositions and methods for CAR T cell therapy” (ENDOCYTE, INC., priority 2017, dated 2023).
Read-outs that look alike come from different tables or passages of the source.

How the values were obtained:
[1] = system: MDA-MB-231 solid tumor xenografts; assay: Anti-tumor efficacy and toxicity of CAR T cells with EC17 in vivo (Example 17); set-up: species or system NSG mice
Description: Immunodeficient NSG mice (Jackson Laboratory) were used to identify the efficacy of CAR T cell anti-tumor activity in vivo. A folate receptor expressing MDA-MB-231 cancer cell line was subcutaneously injected into the back of NSG mice to establish solid tumor xenografts. When tumor volume of around 100-300 mm^3 was reached, a desired concentration of EC17 (as shown in the figure legends) was introduced 4 hours before the administration of a desired number of CAR T cell (as shown in the figure legends) into the mice bearing tumors. After initial administration of EC17 and CAR T cells, desired concentrations of EC17 (as shown in the figure legends) were also introduced (i.v.) three times per week. Control mice were administered T cells without CAR modification. Other control mice were administrated CAR-Ts, but PBS was dosed instead of EC17. Anti-tumor efficacy was monitored by tumor volume. General toxicity of the therapy was monitored by weight loss, gross animal morphology and behavior.

OV90 = assay: FITC-CAR-T/EC17 therapy, OV90 model (Example 28); format: in vivo, NSG mice; conditions: 500 nmol/kg weekly, 5 million FITC-CAR-T
Description: (§1) To test whether FITC-CAR-T/EC17 therapy has anti-tumor activity in various FR+ tumor models, NSG mice were subcutaneously implanted with MDA-MB-231 (triple negative breast cancer cell line), OV90 (human ovarian cancer cell line), KB (human cervical adenocarcinoma cell line), SKOV-3 (human ovarian carcinoma cell line), or HEK293-FRa (HEK293 stably-transfected with human FRa). When tumor size reached […], one dose of EC17 at 500 nmol/kg of body weight was injected by tail vein followed with administering of 5 million FITC-CAR-T cells 4 hours later. 500 nmol/kg EC17 was dosed once every week after the initial EC17/CAR-T administration (about day 7), tumor size and body weights of mice were monitored three times per week. The EC17 dosing days were labeled as green dashed vertical lines in the graph. […] EC17 dose-dependent temporary body weight loss was also observed in all tumor bearing mice, indicating the activation of CAR-Ts is EC17-dependent in these mice.

SKOV-3 = assay: FITC-CAR-T/EC17 therapy, SKOV-3 model (Example 28); format: in vivo, NSG mice; conditions: 500 nmol/kg weekly, 5 million FITC-CAR-T
Description: as §1

MDA-MB-231 = format: in vivo; conditions: for mice died (or euthanized due to sCRS): Week 2
Description: To evaluate whether pre-painting tumors with EC17 can reduce the therapy-related toxicity (e.g. sCRS), NSG mice were implanted with MDA-MB-231. Since larger tumor burden is correlated with more severe CRS, the treatment was started when tumor size reached […]. Mice were divided into two groups and predosed with 500 nmol/kg EC17 at different time points before CAR-T administration (FIGS. 26A and 26B). Group #1 was pre-dosed 4 hours before the administration of 8 million CAR-T cells, while group #2 was pre-dosed 24 hours before the administration of 8 million CAR-T cells. 500 nmol/kg EC17 was then i.v. dosed once per week (at days 1, 8, 15 etc.) post CAR-T administration (FIGS. 26D and 26E). […] No difference in anti-tumor activity was found in these two groups, and all surviving mice became tumor free eventually. Thus, toxicity was less in mice with 24 hour pre-painting than in mice with 4 hour pre-painting with EC17.

KB cells = assay: Anti-fluorescein CAR T cell activity against KB cells in vitro (Example 43); format: cell-based; conditions: CAR T:KB 10 to 1
Description: FR positive cancer cell lines (e.g. KB or MDA-MB-231 cells) were seeded at density of 10^4 cells/100 μl media into 96 well plates and grown overnight. Anti-fluorescein CAR T cells were added to each well in the absence or presence of bridge molecules. After co-incubation for 6-24 hours, plates were centrifuged at 350×g for 10 min to remove debris and supernatants were analyzed for lactate dehydrogenase release (cell death analysis) using Pierce™ LDH cytotoxicity assay kit (Thermo Fisher Scientific, MA) and interferon γ (IFNγ) levels using human IFNγ ELISA kit (Biolegend, CA), while pellets were either evaluated for CAR T cell activation by staining with anti-human CD69 APC (Clone: FN50, Biolegend, CA) or examined for CAR T cell proliferation by culturing for 5 days in TexMACS™ medium (Miltenyi Biotech Inc, CA) containing 1% penicillin and streptomycin sulfate and quantitating by flow cytometry using the intrinsic GFP fluorescence and staining with anti-human CD3 APC antibody (Clone:HIT3a, Biolegend, CA).

MDA-MB-231 cells = assay: Control of CRS with bridge molecules in vivo (Example 43); set-up: species or system NSG mice
Description: Mice were maintained on folic acid-deficient diet (TD.95247, Envigo) in order to reduce the level of folic acid in mice to a physiological levels found in humans. Tumors were measured every other day with calipers, and tumor volume was calculated according to equation: Tumor volume=½(L×W^2) where L is the longest axis of the tumor and W is the axis perpendicular to L. Mouse blood was also collected to measure cytokine levels (e.g. IL-2, IL-6, IFNγ, and TNFα) using LEGENDplex bead-based immunoassay (Biolegend, CA) and systemic toxicity was monitored by measuring body weight loss. All animal care and use followed by National Institutes of Health (NIH) guidelines and all experimental protocols were approved by the Purdue Animal Care and Use Committee.

In the case of `Nc1nc2ncc(CNc3ccc(C(=O)NC(CCC(=O)NCCNC(=S)Nc4ccc(-c5c6ccc(=O)cc-6oc6cc(O)ccc56)c(C(=O)O)c4)C(=O)O)cc3)nc2c(=O)[nH]1` (centres unmarked) [EC17, FITC-Folate], the “effect of changing dosing frequency from TIW to SIW” value ([1]; 5 million CAR T cells) is reported as “reduce the toxicity and achieve better anti-tumor potency”, the anti-tumor outcome ([1]; EC17 20 and 100 nmoles/kg) is reported as “complete cures” and the “sCRS and body weight loss compared to 500 nmoles/kg cohort” value ([1]; EC17 20 and 100 nmoles/kg) is reported as “a lower percentage of sCRS and less body weight loss”. The body weight loss ([1]; optimized EC17 amount and CAR T numbers, complete cures reached) was 2%, the sCRS and cures ([1]; over-saturated EC17 doses 1500 and 10000 nmoles/kg) was “less mice showed sCRS but less mice reached cures” and the cures (OV90) was 50%. For the same compound, the stable disease (OV90) was 50%, the tumor response (SKOV-3) was “stable disease” and the “mice survived over 5 weeks” value (MDA-MB-231; 4-hour pre-painting) was 17%. The “mice died (or euthanized due to sCRS)” value (MDA-MB-231; 4-hour pre-painting) was 33%, the mice died (MDA-MB-231; 4-hour pre-painting, Week 3) was 33% and the mice died (MDA-MB-231; 4-hour pre-painting, week 4) was 17%. The “mice died (or euthanized due to sCRS)” value (MDA-MB-231; 24-hour pre-painting) was 17%, the “mice survived over 5 weeks” value (MDA-MB-231; NSG, mouse, in vivo) was 83% and the “tumor outcome of surviving mice” value (MDA-MB-231; both pre-painting groups) was “tumor free”. For the same compound, the IFNγ production (KB cells; 100 nM) was “induced”, the “proliferation of anti-fluorescein CAR T cells” value (KB cells) was “induced” and the tumor outcome (MDA-MB-231 cells; 500 nmole/kg, days 4 and 6 omitted) was “complete tumor eradication”. For the same compound, the “mice requiring euthanasia by day 8” value (MDA-MB-231 cells; 15×10^6 CAR T cells, continuous alternate day 500 nmole/kg) was “three of the mice”, the body weight (MDA-MB-231 cells; continuous dosing of 500 nmole/kg, 15×10^6 CAR T cells) was “dramatic and continuous weight loss” and the therapeutic benefit (MDA-MB-231 cells; continuous dosing schedule) was “little therapeutic benefit”. The tumor outcome (MDA-MB-231 cells; continuously treated) was “rapid increase in tumor growth”, the “time to resolution of transient weight loss” value (MDA-MB-231 cells; escalation 0.5 to 500 nmole/kg, 15×10^6 CAR T cells) was ≤ 4 days and the tumor outcome (MDA-MB-231 cells; gradual dose escalation regimen) was “complete cures”. For the same compound, the tumor outcome (MDA-MB-231 cells; interrupted dosing) was “complete remission of their tumors”, the body weight (MDA-MB-231 cells; interrupted dosing (days 4 and 6 omitted)) was “only a moderate weight loss from which they rapidly recovered” and the tumor outcome (MDA-MB-231 cells; one dose per week) was “complete cures”. The body weight (MDA-MB-231 cells; single injection per week) was “no weight loss”, the body weight (MDA-MB-231 cells; three doses per week, 5×10^6 CAR T cells) was “significant animal weight loss” and the body weight loss (MDA-MB-231 cells; tumor-bearing mice, within 4 days, 5×10^6 CAR T cells + 500 nmoles/kg) was ~8%. For the same compound, the body weight (MDA-MB-231 cells; tumor-free mice) was “no weight loss was detected” and the toxicity (MDA-MB-231 cells; two doses per week) was “less toxicity”.
